In US8906944B2, “Compounds as tyrosine kinase modulators” (Allergan, Inc., priority 2009, dated 2014) one finds IC50 data, which are given here for 19 molecules.

Holding throughout (type): biochemical
Assay [1] deals with T1, human VEGF receptor (VEGFR-2) (Homo sapiens, UniProt P35968).
T1 construct: The cytoplasmic domain of the human VEGF receptor (VEGFR-2) was expressed; His; made in house; host or cells: insect cells (baculovirus)
The experiment in a line: VEGFR2 kinase assay. The settings on record: His-VEGFR-2 cytoplasmic domain, 3.6 μM ATP; Table IV, amide or urea linker; read-out: VEGFR2 Enzyme IC50. As for the experimental part: The cytoplasmic domain of the human VEGF receptor (VEGFR-2) was expressed as a Histidine-tagged fusion protein following infection of insect cells using an H is engineered baculovirus. […] Kinase assays were performed in 96 well microtiter plates that were coated overnight with 30 µg of poly-Glu-Tyr (4:1) in 10 mM Phosphate Buffered Saline (PBS), pH 7.2-7.4. The plates were incubated with 1% BSA and then washed four times with PBS prior to starting the reaction. Reactions were carried out in 120 µL reaction volumes containing 3.6 µM ATP in kinase buffer (50 mM Hepes buffer pH 7.4, 20 mM MgCl2, 0.1 mM MnCl2 and 0.2 mM Na3 VO4). […] Reactions were initiated by the addition 0.5 ng of purified protein. Following a ten minute incubation at 25 degree. […] IC50 values for compound inhibition were calculated directly from graphs of optical density (arbitrary units) versus compound concentration following subtraction of blank values.

Another assay deals with PDGFβ (Homo sapiens, UniProt P09619). As to the kind of experiment: PDGFβ enzyme assay. The settings on record: Table IV, amide or urea linker.
PDGFβ, sequence (P09619 33-1106): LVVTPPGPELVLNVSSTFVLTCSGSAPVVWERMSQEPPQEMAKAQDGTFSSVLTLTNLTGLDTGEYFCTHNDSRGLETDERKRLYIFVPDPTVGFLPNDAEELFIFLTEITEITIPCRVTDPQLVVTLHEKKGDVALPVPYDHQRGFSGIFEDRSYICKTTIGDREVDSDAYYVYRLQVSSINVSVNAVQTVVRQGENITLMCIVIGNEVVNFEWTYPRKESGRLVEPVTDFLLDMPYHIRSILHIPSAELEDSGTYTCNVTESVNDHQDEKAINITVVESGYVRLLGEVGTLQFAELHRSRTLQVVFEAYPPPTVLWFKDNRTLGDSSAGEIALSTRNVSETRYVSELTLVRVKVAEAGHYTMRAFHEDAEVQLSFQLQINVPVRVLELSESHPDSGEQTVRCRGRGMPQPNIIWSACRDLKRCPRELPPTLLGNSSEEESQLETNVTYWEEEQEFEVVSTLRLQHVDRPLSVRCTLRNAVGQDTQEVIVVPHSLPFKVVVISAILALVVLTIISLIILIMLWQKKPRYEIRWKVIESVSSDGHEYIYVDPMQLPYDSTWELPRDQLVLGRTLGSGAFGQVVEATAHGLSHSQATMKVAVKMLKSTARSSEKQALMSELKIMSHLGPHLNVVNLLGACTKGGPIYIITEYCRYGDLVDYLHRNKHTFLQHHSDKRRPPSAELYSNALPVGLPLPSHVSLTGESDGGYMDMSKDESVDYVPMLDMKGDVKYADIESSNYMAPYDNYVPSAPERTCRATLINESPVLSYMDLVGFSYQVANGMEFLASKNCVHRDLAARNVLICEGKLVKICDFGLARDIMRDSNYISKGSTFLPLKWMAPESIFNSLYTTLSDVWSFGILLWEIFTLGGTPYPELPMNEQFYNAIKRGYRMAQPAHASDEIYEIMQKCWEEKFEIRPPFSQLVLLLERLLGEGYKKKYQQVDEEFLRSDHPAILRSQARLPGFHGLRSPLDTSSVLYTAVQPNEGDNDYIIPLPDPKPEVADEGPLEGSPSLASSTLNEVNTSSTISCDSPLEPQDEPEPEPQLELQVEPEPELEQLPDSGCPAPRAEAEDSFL
The target of the next assay is VEGFR1 (Homo sapiens, UniProt P17948). The experiment in a line: VEGFR1 enzyme assay. The settings on record: Table IV, amide or urea linker.
VEGFR1, sequence (P17948 27-1338, species assumed): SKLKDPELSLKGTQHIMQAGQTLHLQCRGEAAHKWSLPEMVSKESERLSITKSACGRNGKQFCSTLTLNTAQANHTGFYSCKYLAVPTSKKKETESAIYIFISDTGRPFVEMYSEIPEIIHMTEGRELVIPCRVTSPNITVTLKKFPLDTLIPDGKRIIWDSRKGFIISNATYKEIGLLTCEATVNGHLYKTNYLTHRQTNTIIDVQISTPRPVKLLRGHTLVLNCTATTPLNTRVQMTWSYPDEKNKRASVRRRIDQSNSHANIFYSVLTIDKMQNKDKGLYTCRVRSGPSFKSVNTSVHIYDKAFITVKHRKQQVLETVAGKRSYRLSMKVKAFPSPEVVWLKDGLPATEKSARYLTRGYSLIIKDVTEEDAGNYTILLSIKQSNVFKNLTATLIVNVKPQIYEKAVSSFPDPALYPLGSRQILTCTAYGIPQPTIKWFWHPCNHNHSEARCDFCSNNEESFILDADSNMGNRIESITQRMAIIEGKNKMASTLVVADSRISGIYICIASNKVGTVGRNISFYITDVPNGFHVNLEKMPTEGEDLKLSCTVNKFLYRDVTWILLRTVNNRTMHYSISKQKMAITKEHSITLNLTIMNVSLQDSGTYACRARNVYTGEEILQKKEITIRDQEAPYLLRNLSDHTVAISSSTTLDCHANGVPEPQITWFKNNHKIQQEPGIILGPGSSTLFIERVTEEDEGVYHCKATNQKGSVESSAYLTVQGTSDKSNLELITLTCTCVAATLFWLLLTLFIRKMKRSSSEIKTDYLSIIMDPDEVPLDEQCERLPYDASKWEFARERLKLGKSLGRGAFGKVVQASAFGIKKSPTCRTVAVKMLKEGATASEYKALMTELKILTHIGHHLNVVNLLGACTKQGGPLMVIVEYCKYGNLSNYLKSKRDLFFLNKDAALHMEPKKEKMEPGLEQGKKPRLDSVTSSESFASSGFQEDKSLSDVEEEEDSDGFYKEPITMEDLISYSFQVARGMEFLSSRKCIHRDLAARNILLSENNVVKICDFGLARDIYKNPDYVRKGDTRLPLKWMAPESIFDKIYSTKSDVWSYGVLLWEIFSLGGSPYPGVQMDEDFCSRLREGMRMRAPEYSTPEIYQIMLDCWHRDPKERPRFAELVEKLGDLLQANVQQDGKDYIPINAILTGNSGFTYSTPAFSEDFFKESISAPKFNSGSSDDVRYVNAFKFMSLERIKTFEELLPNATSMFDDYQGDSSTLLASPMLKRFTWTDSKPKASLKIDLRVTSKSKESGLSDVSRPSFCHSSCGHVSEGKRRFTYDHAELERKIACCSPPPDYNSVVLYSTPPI

T1 sequence (P35968 786-1356 limits assumed): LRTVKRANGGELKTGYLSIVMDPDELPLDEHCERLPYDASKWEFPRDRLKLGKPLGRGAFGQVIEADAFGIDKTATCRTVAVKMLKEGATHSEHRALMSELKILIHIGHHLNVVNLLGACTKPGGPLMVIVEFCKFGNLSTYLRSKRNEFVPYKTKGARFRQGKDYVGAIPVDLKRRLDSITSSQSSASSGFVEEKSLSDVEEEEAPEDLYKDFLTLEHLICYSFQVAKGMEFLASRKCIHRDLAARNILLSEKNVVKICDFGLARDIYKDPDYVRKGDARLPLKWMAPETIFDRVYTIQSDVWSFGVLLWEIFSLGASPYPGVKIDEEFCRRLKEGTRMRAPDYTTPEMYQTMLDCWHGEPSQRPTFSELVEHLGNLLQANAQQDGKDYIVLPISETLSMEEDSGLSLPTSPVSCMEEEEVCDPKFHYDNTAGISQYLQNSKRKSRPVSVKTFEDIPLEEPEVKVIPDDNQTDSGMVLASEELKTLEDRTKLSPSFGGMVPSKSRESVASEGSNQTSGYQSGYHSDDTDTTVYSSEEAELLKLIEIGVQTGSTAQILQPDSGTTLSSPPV

`Cc1ccc(F)c(NC(=O)Nc2ccc(Oc3ccnc(-c4cc(C(=O)NCC(=O)O)c[nH]4)c3)cc2F)c1` [Example 210, {[(5-{4-[3-fluoro-4-({[(2-fluoro-5-methylphenyl)amino]carbonyl}amino)phenoxy]pyridin-2-yl}-1H-pyrrol-3-yl)carbonyl]amino}acetic acid]: the figures for the IC50 (in assay [1]; against PDGFβ; against VEGFR1) were 12 nM, 13 nM and 8 nM, respectively.

For the molecule `Cc1ccc(F)c(NC(=O)Nc2ccc(Oc3ccnc(-c4cc(C(=O)NCCCN(CC(=O)O)CC(=O)O)c[nH]4)c3)cc2)c1` [Example 214, 2,2′-[(3-{[(5-{4-[4-({[(2-fluoro-5-methylphenyl)amino]carbonyl}amino)phenoxy]pyridin-2-yl}-1H-pyrrol-3-yl)carbonyl]amino}propyl)imino]diacetic acid], the IC50 (as a rule, the concentration needed to halve the response being measured) in assay [1] came out at 22 nM; against PDGFβ, 23 nM; against VEGFR1, 8 nM.

In the case of `Cc1ccc(F)c(NC(=O)Nc2ccc(Oc3ccnc(-c4cc(C(=O)N5CCN(CC(=O)O)CC5)c[nH]4)c3)cc2F)c1` [Example 218, {4-[(5-{4-[3-fluoro-4-({[(2-fluoro-5-methylphenyl)amino]carbonyl}amino)phenoxy]pyridin-2-yl}-1H-pyrrol-3-yl)carbonyl]piperazin-1-yl}acetic acid], the IC50 is 5 nM in assay [1], 16 nM against PDGFβ and 9 nM against VEGFR1.

`Cc1ccc(F)c(NC(=O)Nc2ccc(Oc3ccnc(-c4cc(C(=O)NCCCN5CCCC5C(=O)O)c[nH]4)c3)cc2F)c1` (stereo not drawn) [Example 220, 1-(3-{[(5-{4-[3-fluoro-4-({[(2-fluoro-5-methylphenyl)amino]carbonyl}amino)phenoxy]pyridin-2-yl}-1H-pyrrol-3-yl)carbonyl]amino}propyl)pyrrolidine-2-carboxylic acid]: the values for the IC50 (in assay [1]; against PDGFβ; against VEGFR1) were 13 nM, 23 nM and 11 nM, respectively.

Turning to `Cc1ccc(F)c(NC(=O)Nc2ccc(Oc3ccnc(-c4cc(C(=O)NCCN)c[nH]4)c3)cc2F)c1` [Example 222, N-(2-aminoethyl)-5-{4-[3-fluoro-4-({[(2-fluoro-5-methylphenyl)amino]carbonyl}amino)phenoxy]pyridin-2-yl}-1H-pyrrole-3-carboxamide], the IC50 in assay [1] stood at 9 nM; against PDGFβ, 29 nM; against VEGFR1, 15 nM.

On to `Cc1ccc(F)c(NC(=O)Nc2ccc(Oc3ccnc(-c4cc(C(=O)NCCCN)c[nH]4)c3)cc2F)c1` [Example 223, N-(3-aminopropyl)-5-{4-[3-fluoro-4-({[(2-fluoro-5-methylphenyl)amino]carbonyl}amino)phenoxy]pyridin-2-yl}-1H-pyrrole-3-carboxamide], for which the IC50 in assay [1] is 13 nM; against PDGFβ, 16 nM; against VEGFR1 it was 12 nM.

In the case of `COC(=O)C1CCCN1CCCNC(=O)c1c[nH]c(-c2cc(Oc3ccc(NC(=O)Nc4cc(C)ccc4F)c(F)c3)ccn2)c1` (stereo not drawn) [Example 228, methyl 1-(3-{[(5-{4-[3-fluoro-4-({[(2-fluoro-5-methylphenyl)amino]carbonyl}amino)phenoxy]pyridin-2-yl}-1H-pyrrol-3-yl)carbonyl]amino}propyl)pyrrolidine-2-carboxylate], the IC50 in assay [1] came out at 11 nM; on PDGFβ it was 9 nM; against VEGFR1, 8 nM.

In the case of `Cc1ccc(F)c(NC(=O)Nc2ccc(Oc3ccnc(-c4cc(C(=O)NCCCC(=O)OCC(CO)(CO)CO)c[nH]4)c3)cc2)c1` [Example 234, 3-hydroxy-2,2-bis(hydroxymethyl)propyl 4-{[(5-{4-[4-({[(2-fluoro-5-methylphenyl)amino]carbonyl}amino)phenoxy]pyridin-2-yl}-1H-pyrrol-3-yl)carbonyl]amino}butanoate], the figures for the IC50 (in assay [1]; at PDGFβ; on VEGFR1) were 8 nM, 17 nM and 11 nM, respectively.

With `Cc1ccc(F)c(NC(=O)c2ccc(F)c(Oc3ccnc(-c4cc(C(=O)NCCCO)c[nH]4)c3)c2)c1` [Example 244, 5-[4-(2-fluoro-5-{[(2-fluoro-5-methylphenyl)amino]carbonyl}phenoxy)pyridin-2-yl]-N-(3-hydroxypropyl)-1H-pyrrole-3-carboxamide], the IC50 in assay [1] amounted to 12 nM; against PDGFβ, 94 nM; at VEGFR1, 31 nM.

Turning to `Cc1ccc(F)c(NC(=O)Nc2ccc(Oc3ccnc(-c4cc(C(=O)NCCCN5CCCC5C(=O)O)c[nH]4)c3)cc2)c1` (stereo not drawn) [Example 247, 1-(3-{[(5-{4-[4-({[(2-fluoro-5-methylphenyl)amino]carbonyl}amino)phenoxy]pyridin-2-yl}-1H-pyrrol-3-yl)carbonyl]amino}propyl)pyrrolidine-2-carboxylic acid], the values for the IC50 (in assay [1]; on PDGFβ; against VEGFR1) were 15 nM, 21 nM and 25 nM, respectively.

Turning to `COC(=O)CC[C@H](NC(=O)c1c[nH]c(-c2cc(Oc3cc(C(=O)Nc4cc(C)ccc4F)ccc3F)ccn2)c1)C(=O)OC` [Example 249, dimethyl 2-[({5-[4-(2-fluoro-5-{[(2-fluoro-5-methylphenyl)amino]carbonyl}phenoxy)pyridin-2-yl]-1H-pyrrol-3-yl}carbonyl)amino]pentanedioate], the IC50 in assay [1] stood at 33 nM; against PDGFβ it was 55 nM; against VEGFR1, 46 nM.

Take `Cc1ccc(F)c(NC(=O)Nc2ccc(Oc3ccnc(-c4cc(C(=O)NCCCN)c[nH]4)c3)cc2)c1` [Example 250, N-(3-aminopropyl)-5-{4-[4-({[(2-fluoro-5-methylphenyl)amino]carbonyl}amino)phenoxy]pyridin-2-yl}-1H-pyrrole-3-carboxamide]: the IC50 in assay [1] is 24 nM; against PDGFβ, 54 nM; against VEGFR1, 8 nM.

`Cc1ccc(F)c(NC(=O)Nc2ccc(Oc3ccnc(-c4cc(C(=O)NCCCNC(=O)OC(C)(C)C)c[nH]4)c3)cc2)c1` [Example 251, tert-butyl (3-{[(5-{4-[4-({[(2-fluoro-5-methylphenyl)amino]carbonyl}amino)phenoxy]pyridin-2-yl}-1H-pyrrol-3-yl)carbonyl]amino}propyl)carbamate]: the IC50 worked out at 46 nM in assay [1], 79 nM at PDGFβ and 18 nM against VEGFR1.

Turning to `Cc1ccc(F)c(NC(=O)c2ccc(F)c(Oc3ccnc(-c4cc(C(=O)NCCCN)c[nH]4)c3)c2)c1` [Example 252, N-(3-aminopropyl)-5-[4-(2-fluoro-5-{[(2-fluoro-5-methylphenyl)amino]carbonyl}phenoxy)pyridin-2-yl]-1H-pyrrole-3-carboxamide], the IC50 in assay [1] is 24 nM; on PDGFβ, 99 nM; against VEGFR1, 25 nM.

Consider `Cc1ccc(F)c(NC(=O)c2ccc(F)c(Oc3ccnc(-c4cc(C(=O)NCCCNC(=O)OC(C)(C)C)c[nH]4)c3)c2)c1` [Example 253, tert-butyl {3-[({5-[4-(2-fluoro-5-{[(2-fluoro-5-methylphenyl)amino]carbonyl}phenoxy)pyridin-2-yl]-1H-pyrrol-3-yl}carbonyl)amino]propyl}carbamate], for which the IC50 in assay [1] came out at 64 nM; on PDGFβ, 200 nM; on VEGFR1 it was 36 nM.

In the case of `Cc1ccc(F)c(NC(=O)c2ccc(F)c(Oc3ccnc(-c4cc(C(=O)NCCCN5CCOCC5)c[nH]4)c3)c2)c1` [Example 254, 5-[4-(2-fluoro-5-{[(2-fluoro-5-methylphenyl)amino]carbonyl}phenoxy)pyridin-2-yl]-N-(3-morpholin-4-ylpropyl)-1H-pyrrole-3-carboxamide], the IC50 in assay [1] came to 24 nM; at PDGFβ it was 35 nM; against VEGFR1, 35 nM.

Take `CCNC(=O)[C@H](CCC(=O)O)NC(=O)c1c[nH]c(-c2cc(Oc3cc(C(=O)Nc4cc(C)ccc4F)ccc3F)ccn2)c1` [Example 255, 5-(ethylamino)-4-[({5-[4-(2-fluoro-5-{[(2-fluoro-5-methylphenyl)amino]carbonyl}phenoxy)pyridin-2-yl]-1H-pyrrol-3-yl}carbonyl)amino]-5-oxopentanoic acid]: the IC50 in assay [1] stood at 28 nM; against PDGFβ it was 185 nM; at VEGFR1 it was 44 nM.

In the case of `CCNC(=O)[C@H](CCC(=O)OC(C)(C)C)NC(=O)c1c[nH]c(-c2cc(Oc3cc(C(=O)Nc4cc(C)ccc4F)ccc3F)ccn2)c1` [Example 256, tert-butyl 5-(ethylamino)-4-[({5-[4-(2-fluoro-5-{[(2-fluoro-5-methylphenyl)amino]carbonyl}phenoxy)pyridin-2-yl]-1H-pyrrol-3-yl}carbonyl)amino]-5-oxopentanoate], the IC50 in assay [1] stood at 55 nM; against PDGFβ, 167 nM; against VEGFR1, 24 nM.

In the case of `Cc1ccc(F)c(NC(=O)c2ccc(F)c(Oc3ccnc(-c4cc(C(=O)N[C@@H](CCC(=O)OC(C)(C)C)C(=O)O)c[nH]4)c3)c2)c1` [Example 257, 5-tert-butoxy-2-[({5-[4-(2-fluoro-5-{[(2-fluoro-5-methylphenyl)amino]carbonyl}phenoxy)pyridin-2-yl]-1H-pyrrol-3-yl}carbonyl)amino]-5-oxopentanoic acid], the IC50 in assay [1] amounted to 53 nM; against PDGFβ, 180 nM; on VEGFR1, 18 nM.
